The values that follow come from ChEMBL document CHEMBL3120117, “Synthesis and antitumor activity evaluation of chrysin derivatives” (Eur J Med Chem, 2014).

The subject of assay [1] is H22. In words: Cell cycle arrest in mouse H22 cells assessed as accumulation at S phase at 1 mmol/l after 24 hrs by propidium iodide staining based flow cytometry (reference value: 70.21 +/-0.38%). It counts as functional. In general terms: In flow cytometry, cells or beads pass a laser one at a time.
The subject of assay [2] is H22. In words: Cell cycle arrest in mouse H22 cells assessed as accumulation at G1 phase at 1 mmol/l after 24 hrs by propidium iodide staining based flow cytometry (reference value: 14.38 +/-0.54%). The format is functional.
For assay [3], the system named is H22. As to the kind of experiment: Cell cycle arrest in mouse H22 cells assessed as accumulation at G2/M phase at 1 mmol/l after 24 hrs by propidium iodide staining based flow cytometry (reference value: 15.42 +/-0.33%). The format is functional.
For assay [4], the system named is H22. In words: Cytotoxicity against mouse H22 cells assessed as growth inhibition by MTT assay. The format is functional, cell-based. In general terms: Tetrazolium assays rely on reduction of a dye to a coloured formazan, in cell work by metabolically active cells.
The subject of assay [5] is H22. As to the kind of experiment: Cytotoxicity against mouse H22 cells assessed as growth inhibition by MTT assay relative to chrysin. It counts as functional.

On to `O=c1cc(-c2ccccc2)oc2cc(O)cc(O)c12` [CHRYSIN], for which the Activity in the assay with H22 [1] is 69.91%; with H22 [2], 12.97%; with H22 [3], 17.13%. Also, the IC50 (usually the point on the concentration scale where inhibition reaches its midpoint) in the assay on H22 [4] stood at 1.67 mM. As to `CCOC(=O)COc1cc(OC(=O)c2ccccc2)cc2oc(-c3ccccc3)cc(=O)c12`, the IC50 in the assay with H22 [4] is 3.22 mM.

Take `CCOC(=O)COc1cc(OCC(=O)OCC)c2c(=O)cc(-c3ccccc3)oc2c1`: in the assay on H22 [4], the IC50 turned out to be 4.03 mM. Same read-out and setting: the same measure for `O=C(Oc1cc(O)c2c(=O)cc(-c3ccccc3)oc2c1)c1ccccc1`: 1.71 mM. `O=C(O)COc1cc(OCC(=O)O)c2c(=O)cc(-c3ccccc3)oc2c1` [FLAVODIC ACID]: in the assay on H22 [4], the IC50 came to 3.12 mM. For `O=C(O)COc1cc(O)cc2oc(-c3ccccc3)cc(=O)c12`, the IC50 with H22 [4] was 2.47 mM. For the molecule `CC(=O)Oc1cc(OC(C)=O)c2c(=O)cc(-c3ccccc3)oc2c1` [CHRYSIN DIACETATE], the Activity was found to be 57.44% in the assay on H22 [1], 6.22% in the assay with H22 [2] and 36.34% in the assay with H22 [3]. In addition, the “growth inhibition (GI)” value in the assay on H22 [5] amounted to 91.56%. Besides, the IC50 in the assay on H22 [4] was 0.141 mM. With `O=C(Oc1cc(OC(=O)c2ccccc2)c2c(=O)cc(-c3ccccc3)oc2c1)c1ccccc1`, in the assay on H22 [4], the IC50 was 3.66 mM. Turning to `CC(=O)Oc1cc(O)c2c(=O)cc(-c3ccccc3)oc2c1`, in the assay on H22 [4], the IC50 amounted to 4.29 mM.
